From the supplement of paper PMC10307832

Tests used:
Assay in all cases: relative viability (nuclei count vs DMSO), 5 days (fraction); higher = more cells survive
Decitabine + Phenformin = compound: Nc1ncn([C@H]2C[C@H](O)[C@@H](CO)O2)c(=O)n1 [Decitabine] + N=C(N)NC(=N)NCCc1ccccc1 [Phenformin] (partner 250 µM)
In short: (§1)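 Relative viability was taken as the ratio of nuclei in treated wells to nuclei in vehicle wells. Lung cancer cell lines in 1536-well plates received compounds by pin tool one day after seeding, either one drug alone or a fixed anchor-drug dose plus five library-drug doses (not always all listed) in √10 steps. Nuclei were counted on 4× images after 5 days of treatment, and values are medians of duplicate plates.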

Cediranib + Tozasertib = compound: COc1cc2c(Oc3ccc4[nH]c(C)cc4c3F)ncnc2cc1OCCCN1CCCC1 [Cediranib] + Cc1cc(Nc2cc(N3CCN(C)CC3)nc(Sc3ccc(NC(=O)C4CC4)cc3)n2)n[nH]1 [Tozasertib] (partner 0.1 µM)
In short: as §1

Decitabine + Dasatinib = compound: Nc1ncn([C@H]2C[C@H](O)[C@@H](CO)O2)c(=O)n1 [Decitabine] + Cc1nc(Nc2ncc(C(=O)Nc3c(C)cccc3Cl)s2)cc(N2CCN(CCO)CC2)n1 [Dasatinib] (partner 0.075 µM)
In short: as §1

Decitabine + Trametinib = compound: Nc1ncn([C@H]2C[C@H](O)[C@@H](CO)O2)c(=O)n1 [Decitabine] + CC(=O)Nc1cccc(-n2c(=O)n(C3CC3)c(=O)c3c(Nc4ccc(I)cc4F)n(C)c(=O)c(C)c32)c1 [Trametinib] (partner 0.02 µM)
In short: as §1

Cell Line | relative viability (Decitabine + Phenformin; first compound 0.04 µM) | relative viability (Decitabine + Phenformin; first compound 0.1265 µM) | relative viability (Decitabine + Phenformin; first compound 0.4 µM) | relative viability (Decitabine + Phenformin; first compound 1.265 µM) | relative viability (Decitabine + Phenformin; first compound 4 µM) | relative viability (Cediranib + Tozasertib; first compound 0.04 µM) | relative viability (Cediranib + Tozasertib; first compound 0.4 µM) | relative viability (Cediranib + Tozasertib; first compound 1.265 µM) | relative viability (Cediranib + Tozasertib; first compound 4 µM) | relative viability (Decitabine + Dasatinib; first compound 0.04 µM) | relative viability (Decitabine + Dasatinib; first compound 0.1265 µM) | relative viability (Decitabine + Dasatinib; first compound 0.4 µM) | relative viability (Decitabine + Dasatinib; first compound 1.265 µM) | relative viability (Decitabine + Dasatinib; first compound 4 µM) | relative viability (Decitabine + Trametinib; first compound 0.04 µM) | relative viability (Decitabine + Trametinib; first compound 0.1265 µM) | relative viability (Decitabine + Trametinib; first compound 0.4 µM) | relative viability (Decitabine + Trametinib; first compound 1.265 µM) | relative viability (Decitabine + Trametinib; first compound 4 µM) | relative viability (Cediranib + Tozasertib; first compound 0.1265 µM)
NCI-H1623 | 0.539 | 0.507 | 0.5 | 0.492 | 0.462 | 0.453 | 0.427 | 0.469 | 0.43 | 0.464 | 0.494 | 0.461 | 0.467 | 0.514 | – | – | – | – | – | –
HCC-827 | 0.17 | 0.288 | 0.283 | 0.214 | 0.289 | 0.529 | 0.407 | 0.414 | 0.351 | 0.139 | 0.317 | 0.325 | 0.284 | 0.267 | 0.222 | 0.378 | 0.322 | 0.257 | 0.344 | –
NCI-H322M | 0.647 | 0.745 | 0.6 | 0.478 | 0.549 | 0.484 | 0.473 | 0.424 | 0.486 | 0.246 | 0.327 | 0.299 | 0.285 | 0.349 | 0.508 | 0.453 | 0.6 | 0.457 | 0.486 | 0.564
ChaGo-K-1 | 0.435 | 0.413 | 0.301 | 0.271 | 0.336 | 0.214 | 0.236 | 0.202 | 0.209 | 0.467 | 0.549 | 0.311 | 0.329 | 0.346 | 0.729 | 0.628 | 0.5 | 0.434 | 0.62 | 0.263
BEN | 0.28 | 0.261 | 0.259 | 0.239 | 0.245 | 0.446 | 0.554 | – | 0.627 | 0.373 | 0.406 | 0.225 | 0.251 | 0.218 | 1.1 | 0.947 | 0.772 | 0.558 | 0.622 | –
NCI-H2347 | 0.472 | 0.384 | 0.413 | 0.467 | 0.326 | 0.532 | 0.596 | 0.539 | 0.485 | 0.295 | 0.315 | 0.351 | 0.283 | 0.286 | 0.295 | 0.334 | 0.267 | 0.257 | 0.287 | 0.385
LOU-NH91 | 0.442 | 0.724 | 0.732 | 0.588 | 0.659 | 0.473 | 0.646 | 0.708 | 0.658 | 0.43 | 0.551 | 0.627 | 0.491 | 0.519 | 0.661 | 0.831 | 0.78 | 0.707 | 0.757 | 0.67
NCI-H2228 | 0.271 | 0.252 | 0.103 | 0.154 | 0.192 | 0.26 | 0.237 | 0.207 | 0.203 | 0.324 | 0.354 | 0.135 | 0.161 | 0.155 | 0.396 | 0.394 | 0.358 | 0.198 | 0.204 | 0.351
NCI-H2342 | 0.597 | 0.732 | 0.511 | 0.514 | 0.535 | 0.54 | 0.568 | 0.536 | 0.484 | 0.329 | 0.365 | 0.308 | 0.295 | 0.303 | 0.959 | 1.03 | 0.88 | 0.606 | 0.72 | 0.575
HCC-366 | 0.505 | 0.528 | 0.392 | 0.244 | 0.155 | 0.114 | 0.125 | 0.136 | 0.147 | 0.608 | 0.632 | 0.567 | 0.195 | 0.128 | 0.361 | 0.334 | 0.258 | 0.12 | 0.109 | 0.0898
NCI-H2405 | 0.388 | 0.39 | 0.408 | 0.321 | 0.366 | 0.75 | 0.717 | 0.778 | 0.757 | 0.209 | 0.194 | 0.286 | 0.204 | 0.203 | 0.575 | 0.732 | 0.645 | 0.493 | 0.407 | 0.88
201T | 0.42 | 0.454 | 0.518 | – | 0.409 | 1.1 | 0.875 | 0.966 | 0.889 | 0.567 | 0.595 | 0.578 | – | 0.517 | 0.739 | 0.721 | 0.773 | – | 0.708 | 1.19
CAL-12T | 0.517 | 0.633 | – | 0.372 | 0.339 | 0.333 | 0.29 | 0.397 | 0.293 | 0.356 | 0.477 | – | 0.212 | 0.235 | 0.303 | 0.361 | 0.217 | 0.265 | 0.294 | 0.333
HCC-44 | 0.136 | 0.196 | 0.0892 | 0.136 | 0.13 | – | 0.893 | 1.05 | 0.831 | – | – | – | – | – | 1.04 | 0.991 | 0.833 | 0.819 | 0.75 | –
